# Tests used:
# [1] = tested on: MT-4 cells (adult human T-cell leukemia cells); experiment: Cellular toxicity, MTS cell viability, MT-4 cells; assay type: cell-based; settings: Homo sapiens, MT4, 120 h, 5 day, MTS viability
# Experimental: (§1) 6D-2 cells (MCF-7 human breast cancer cells stably transfected with luciferase linked to the 5′ and 3′UTRs of human HER2) were added to 96-well plates at 7500 cells per well in 200 μL medium and incubated for 24 hours at 100% humidity, 5% CO2, and 37° C. Compounds were diluted from DMSO stock solutions into medium and were added at various concentrations. The 6D-2 cells were incubated for 16 hours at which time the volume of medium in each well was reduced to 100 μL using a plate washer. 20 μL of MTS cell viability reagent (Promega, Madison, Wis.) was then added to each well, and the plates were incubated for 1-4 hours. A plate containing wells with 100 μL medium plus MTS reagent was prepared to determine the background reading. The plates were read on the Wallac 2 plate reader (PerkinElmer Life Science, Boston, Mass.) at 490 nm. Percent viability was calculated as (O.D. of compound treated cells−background O.D.)/(O.D. of DMSO treated cells−background O.D.)×100. MT-4 cells (adult human T-cell leukemia cells) were plated at 1.5×10^5 cells per well in 200 μL medium and incubated for at least one hour before the addition of compounds. The cells were incubated for 5 days at 100% humidity, 5% CO2, and 37° C. Cell viability was determined as described for 6D-2 cells.
# (§2) Compounds of the invention containing a pyrrolidine substituent were tested for toxicity to cancerous and non-cancerous cells. 6D-2 cellular activity is representative of potency as an antitumor agent. MT-4 cellular activity is representative of general toxicity. A high IC50 for MT-4 cells and a low IC50 for 6D-2 cells is indicative of a compound of potential therapeutic use in treating or preventing proliferative diseases, such as cancer.
# 6D-2 cancer cell line = experiment: Viability of 6D-2 cells on administration of MES 51151 (FIG. 3); assay type: cell-based, human
# Experimental: (§3) FIG. 3 is a graph of the effect of administration of MES 51151 on the viability of 6D-2 cells and PBMCs.
# (§4) Toxicity of the transfected cells increased with increased concentration of MES 51151 administered to the cells (FIG. 3, showing the percent viable 6D-2 cells compared to control cells). MES 51151 was administered to primary peripheral blood mononuclear cells (PBMCs) to test for its effect on cell toxicity. MES 51151 was not toxic to the PBMCs (FIG. 3, showing the percent viable PBMCs compared to control cells). The EC50 of MES 51151 when administered to the 6D-2 cancer cell line was less than 100 nM, yet MES 51151 was not toxic to PBMCs even when administered at a concentration of 10 μM. Therefore, the therapeutic index of MES 51151 is at least 100, and may be even higher. […] Thus, this compound may potentially be employed for the treatment or prevention of proliferative diseases, including cancer.
# [2] = tested on: luciferase reporter operatively linked to HER2 5′ and 3′UTRs; experiment: HER2 UTR/luciferase reporter screening assay in stably transfected MCF7 (6D-2) cells; assay type: cell-based, human; settings: HER2 5′ and 3′UTR/luciferase reporter
# Experimental: The HER2 UTR/reporter nucleic acid stably transfected cell system described above was used to identify compounds that either increased or decreased the level of HER2 translation efficiency. Small molecules from a library of candidate compounds (MES library, Message Pharmaceuticals, Malvern, Pa., containing, for example, small molecules from a commercially available Nanoscale Combinatorial Synthesis Inc. (Mountain View, Calif.) library) were administered to 6D-2 cells containing the stably transfected luciferase reporter nucleic acid sequence operatively linked to HER2 5′ and 3′UTRs to identify compounds that modulate HER2 translation efficiency. Each candidate compound was administered at a concentration of 10 μM.
# After 16 hours of exposure to the compound, the level of luciferase protein activity was measured in candidate compound-treated cells containing the luciferase construct only, or in cells containing the luciferase/UTRs that were not treated with the candidate compound, or are treated with the candidate compound vehicle only (control cells), and compared to activity levels in candidate compound-treated cells containing the luciferase construct with the UTRs (test cells). […]
# [3] = Cellular toxicity, MTS cell viability, 6D-2 cells; assay type: cell-based, human; settings: Homo sapiens, MCF7, MTS viability
# Experimental: as §1, §2
# [4] = tested on: primary peripheral blood mononuclear cells (PBMCs); experiment: Viability of PBMCs on administration of MES 51151 (FIG. 3); assay type: cell-based; settings: concentration of 10 μM
# Experimental: as §3, §4
smiles,measurement,setting,value
CC(=O)Nc1ccc(NC2=C(N3CCCC3)C(=O)c3ccccc3C2=O)cc1 [Example 2],IC50,[1],0.08 µM
same,Therapeutic index,6D-2 cancer cell line; 6D-2 EC50 versus non-toxic concentration in PBMCs,at least 100
same,EC50,"6D-2 cancer cell line; Homo sapiens, 6D-2 cells, toxicity (percent viable cells compared to control), read-out: EC50 when administered to the 6D-2 cancer cell line",< 0.1 µM
same,Luciferase activity,[2],reduced luciferase activity through toxicity
same,IC50,[3],0.25 µM
same,Toxicity to PBMCs,[4],not toxic
